# Data taken from PubChem BioAssay (NCI).
#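 Protocol summary: plate cells (96-well), add compound at 5 concentrations, incubate 48 h, interpolate endpoints linearly. GI50 marks 50% less growth. The concentration for full growth arrest is given as TGI.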 Where a SMILES comes first, the peptide text is derived from it. The star is where a group is joined. Bn = c1ccc(C*)cc1
# Tests used:
# Test in all cases: NCI-60 cell line screen, 48 h
# CAKI-1 renal = tested on: CAKI-1 renal
# K-562 leukemia = tested on: K-562 leukemia
# M14 melanoma = tested on: M14 melanoma
# MALME-3M melanoma = tested on: MALME-3M melanoma
# MCF7 breast = tested on: MCF7 breast
# MOLT-4 leukemia = tested on: MOLT-4 leukemia
# OVCAR-8 ovarian = tested on: OVCAR-8 ovarian
# SF-268 CNS = tested on: SF-268 CNS
# SN12C renal = tested on: SN12C renal
# SNB-19 CNS = tested on: SNB-19 CNS
Compound,TGI (CAKI-1 renal) [µM],TGI (K-562 leukemia) [µM],TGI (M14 melanoma) [µM],TGI (MALME-3M melanoma) [µM],TGI (MCF7 breast) [µM],TGI (MOLT-4 leukemia) [µM],TGI (OVCAR-8 ovarian) [µM],TGI (SF-268 CNS) [µM],TGI (SN12C renal) [µM],TGI (SNB-19 CNS) [µM],GI50 (CAKI-1 renal) [µM],GI50 (K-562 leukemia) [µM],GI50 (M14 melanoma) [µM],GI50 (MALME-3M melanoma) [µM],GI50 (MCF7 breast) [µM],GI50 (MOLT-4 leukemia) [µM],GI50 (OVCAR-8 ovarian) [µM],GI50 (SF-268 CNS) [µM],GI50 (SN12C renal) [µM],GI50 (SNB-19 CNS) [µM]
COc1cc(CC(C)N)ccc1O (stereo not drawn),> 100,> 100,> 100,> 100,> 100,> 100,> 100,> 100,> 100,> 100,,,,,,,,,,
Nc1nc(Nc2ccc(Cl)cc2)sc1C(=O)c1cccs1,,,> 100,> 100,> 100,> 100,,83.4,50.6,47.6,,,,,,,,,,
O=C(O)CC(NC(=O)/C(=C/c1ccccc1O)NC(=O)c1ccccc1)C(=O)O (stereo not drawn),> 100,> 100,> 100,> 100,> 100,> 100,> 100,,> 100,,,,,,,,,,,
Cc1ccc(-c2c(C#N)c(-c3ccc([N+](=O)[O-])cc3)c(C#N)c(=O)n2NS(=O)(=O)c2ccccc2)cc1,> 100,> 100,> 100,> 100,54.1,52.8,> 100,> 100,> 100,> 100,,,,,,,,,,
O=C1c2cccc(NCCNCCO)c2C(=O)c2cccc(NCCNCCO)c21,4.56,15,3.57,3.65,10.3,6.3,5.97,2.15,5.82,5.53,,,,,,,,,,
NS(=O)(=O)c1ccc(NC(NC(=O)C(C(F)(F)F)C(F)(F)F)(C(F)(F)F)C(F)(F)F)cc1,> 100,> 100,> 100,> 100,> 100,> 100,> 100,> 100,> 100,> 100,,,,,,,,,,
O=C(Nc1ccc(-n2cc(-c3ccncc3)c(-c3ccc(O)c(Cl)c3)n2)cc1)Nc1cccc(Cl)c1Cl,> 32.5,> 32.5,> 32.5,> 32.5,> 32.5,> 32.5,> 32.5,> 32.5,> 32.5,> 32.5,> 32.5,5.4,3.16,4.94,4.2,3.7,6.86,18.6,19.9,15.8
O=c1n(Cc2ccccc2)c(=O)n2c(=O)n(Cc3ccccc3)c(=O)n12,> 100,> 100,,> 100,> 100,,> 100,> 100,> 100,> 100,,,,,,,,,,
C[C@]12CC[C@H](O)C=C1CC[C@@H]1[C@@H]2CC[C@]2(C)C(c3ccc(=O)oc3)CC[C@]12O (stereo partly drawn),0.0225,0.405,,0.014,0.173,< 0.0125,0.0527,0.0269,0.0773,0.237,,,,,,,,,,
COC(=O)C1OC(O[C@H]2CC[C@]3(C)[C@H]4CC=C5[C@@H]6CC(C)(C)CC[C@]6(C(=O)OC6OCC(O)C(O)C6OC6OC(C)C(OC7OCC(OC8OCC(O)C(O)C8O)C(O)C7O)C(O)C6O)[C@H](O)C[C@@]5(C)[C@]4(C)CC[C@H]3C2(C)C)C(O)C(O)C1O (stereo partly drawn),11.7,,3.56,14.5,6.63,> 100,13.2,13.9,3.36,8.09,,,,,,,,,,
c1csc(-c2c3ccc(=[N+]4CCCCC4)cc-3oc3cc(N4CCCCC4)ccc23)c1,0.305,,0.215,0.0822,,0.473,,,,,0.131,,0.0776,0.027,,0.0515,,,,
CCN1C(=O)N(CC)C2Nn3c(s/c(=C4\C(=O)N(C)c5ccccc54)c3=O)=NC21 (stereo not drawn),> 100,> 100,> 100,> 100,> 100,> 100,> 100,> 100,,,1.05,0.727,2.41,3.9,1.03,3.92,4.3,> 100,,
O=C(c1ccccc1)N1C(=S)N=C(Nc2ccccc2)C1=Nc1ccccc1,> 100,> 100,,> 100,,> 100,> 100,> 100,> 100,> 100,,,,,,,,,,
Cc1cc2nc(-c3cc(C(C)(C)C)c(O)c(C(C)(C)C)c3)[nH]c2cc1C,> 26.2,> 43.1,> 100,> 100,,27.1,> 52.8,> 100,> 100,> 100,,,,,,,,,,
CC(C)(C)OC(=O)C1C(=O)NC(=O)CC1C(COCc1ccccc1)OCc1ccccc1 (stereo not drawn),> 100,> 100,34.8,35.5,57.7,52.9,> 100,59.3,,> 100,,,,,,,,,,
COC(=O)[C@H](C)NC(=O)[C@H](CSC)N1C(=O)N[C@@H](C(C)C)C1=O,> 100,> 100,> 100,> 100,> 100,> 100,> 100,,> 100,> 100,,,,,,,,,,
O=[N+]([O-])c1ccc(C2=Nc3ccccc3SC(c3ccccc3)C2)cc1 (stereo not drawn),35.8,67.6,36.3,,,> 100,40.3,63.3,32.2,32.3,,,,,,,,,,
COC(=O)C(CC(C)C)NC(=O)C(N)Cc1ccc(OCc2ccccc2)cc1 (stereo not drawn) (H-Tyr(Bn)-Leu-OMe; configuration not given here),> 10,> 10,> 10,6.62,,> 10,> 10,> 10,> 10,> 10,,,,,,,,,,
COc1cc2c(c(O)c1O)-c1ccc(OC)c(=O)cc1C(NC(C)=O)CC2 (stereo not drawn),> 100,29.1,> 100,> 100,,> 64.3,> 100,> 100,> 80.8,> 100,,,,,,,,,,
NC(=O)c1ncn2c1NC(=O)CC2,> 100,> 100,,> 100,> 100,> 100,> 100,> 100,> 100,> 100,,,,,,,,,,
O=C(OCc1ccccc1)C(Cc1ccccc1)N(Cc1ccccc1)Cc1ccccc1 (stereo not drawn),> 100,> 100,> 100,> 100,,> 100,> 100,> 100,> 100,> 100,,,,,,,,,,

Compound,TGI (CAKI-1 renal) [µM],TGI (K-562 leukemia) [µM],TGI (M14 melanoma) [µM],TGI (MALME-3M melanoma) [µM],TGI (MCF7 breast) [µM],TGI (MOLT-4 leukemia) [µM],TGI (OVCAR-8 ovarian) [µM],TGI (SF-268 CNS) [µM],TGI (SN12C renal) [µM],TGI (SNB-19 CNS) [µM],GI50 (CAKI-1 renal) [µM],GI50 (K-562 leukemia) [µM],GI50 (M14 melanoma) [µM],GI50 (MALME-3M melanoma) [µM],GI50 (MCF7 breast) [µM],GI50 (MOLT-4 leukemia) [µM],GI50 (OVCAR-8 ovarian) [µM],GI50 (SF-268 CNS) [µM],GI50 (SN12C renal) [µM],GI50 (SNB-19 CNS) [µM]
COP(=O)(OC)C12CCOCCN1c1ccccc1C2=O (stereo not drawn),> 100,,> 100,> 100,> 100,> 100,> 100,> 100,> 100,> 100,,,,,,,,,,
COc1ccc(N=NC(=Nc2ccc(F)cc2)c2ccc(N(CCC#N)CCC#N)cc2)cc1,> 100,> 100,> 100,,> 100,> 100,> 100,> 100,> 100,> 100,,,,,,,,,,
O=C1CCc2ccc3c(c21)CC1(Cc2ccccc2C1)C3,> 100,,> 100,70.5,> 100,> 100,> 100,> 100,> 100,> 100,,,,,,,,,,
c1ccc(-c2cnc(-c3ccc(-c4ncc(-c5ccccc5)o4)cc3)o2)cc1,,> 100,> 100,> 100,> 100,> 100,> 100,> 100,> 100,> 100,,,,,,,,,,
CC(C)(C)OC(=O)n1c(-c2ccccc2F)cc(=O)c2cc3c(cc21)OCO3,> 37.3,> 100,> 100,> 100,> 100,10,20.4,> 100,,> 100,,,,,,,,,,
COc1ccc(-c2csc(NC(=O)CSc3nc(C)c(-c4ccccc4)n3Nc3ccccc3)n2)cc1,> 100,> 100,> 100,,> 100,> 100,> 100,> 100,> 100,> 100,2.5,5.29,8.66,,8.25,3.78,3.48,9.05,4.03,> 100
CCCCN(CCCC)C(=C(C(Cl)=C(Cl)Cl)[N+](=O)[O-])N(CCCC)CCCC,> 100,4.69,> 100,> 100,,,,> 100,> 100,> 100,,,,,,,,,,
CCOC(=O)C1(C(=O)OCC)CCCN1C(=O)[C@H](CNC(=O)OC(C)(C)C)NC(=O)OCc1ccccc1,> 100,> 100,> 100,,> 100,> 100,,> 100,> 100,> 100,,,,,,,,,,
CCCCC#CS(=O)(=O)C(F)(F)F,> 100,> 100,,> 100,> 100,> 100,> 100,> 100,> 100,> 100,,,,,,,,,,
COC(=O)C1=C(O)C(C(=O)OC)[C@@]2(O)[C@@H](C(=O)OC)[C@H](C)[C@@H](C)[C@@H]1[C@@H]2C(=O)OC (stereo partly drawn),,> 100,> 100,> 100,> 100,> 100,,> 100,> 100,> 100,,,,,,,,,,
COc1ccc2c(c1)CCN=C2c1ccccc1CCCCl,70.2,> 100,> 100,,> 100,42.4,> 100,> 100,54.4,40.1,,,,,,,,,,
CC12CC1C(c1cccc([N+](=O)[O-])c1)(c1cccc([N+](=O)[O-])c1)N=N2 (stereo not drawn),,> 100,> 100,53.1,> 100,> 100,74.4,> 100,55,> 100,,,,,,,,,,
C=C(C)[C@@]1(O[Si](C)(C)C)CCCC[C@@H]1CC(Sc1ccccc1)Sc1ccccc1,25.8,41.2,31.3,24.4,27.6,25.7,31.7,28.2,,30.6,,,,,,,,,,
O=C(O)c1ccc2c(c1)CC1(C2)Cc2cc3c(cc2C1=O)CCC3 (stereo not drawn),,> 100,> 100,> 100,> 100,> 100,> 100,> 100,> 100,> 100,,,,,,,,,,
Nc1nc(Nc2ccccc2)sc1C(=O)c1c[nH]c2ccccc12,,56.7,20.6,34.5,26.9,25.8,,33.8,34.4,20.3,,,,,,,,,,
CCOC(=O)C(C)c1nc2c(Cl)c3ncccc3cc2[nH]c1=O (stereo not drawn),> 100,> 100,> 100,> 100,,> 100,> 100,> 100,> 100,> 100,,,,,,,,,,
COC(=O)C1(Cc2ccc3c(c2)CCC3)Cc2cc3c(cc2C1)CCC3,,> 100,> 100,,58.5,> 100,> 100,> 100,> 100,> 100,,,,,,,,,,
CCCCC/C(C=O)=C\c1ccccc1,> 100,69.8,> 100,,> 100,> 100,> 100,> 100,,> 100,,,,,,,,,,
Cc1cn([C@H]2C[C@](C)(CO)N(C)O2)c(=O)[nH]c1=O,> 100,> 100,> 100,> 100,> 100,> 100,,> 100,> 100,> 100,,,,,,,,,,
CCCOC(=O)NC(C)C(=O)NC(CCC(=O)NC(CCCC(N)C(=O)O)C(=O)NC(C)C(=O)O)C(=O)O (stereo not drawn),40.7,,40.6,,> 100,41.9,33.9,42.3,> 100,71,,,,,,,,,,
O=C(O)CSC(NC(=O)C(C(F)(F)F)C(F)(F)F)(C(F)(F)F)C(F)(F)F,> 100,> 100,> 100,,,> 100,83.3,> 100,> 100,> 100,,,,,,,,,,
